Assay results: US20180008535A1, “Drug-Device Unit Containing Quinagolide” (Ferring B.V., priority 2014, published 2018)

What was measured:
[1] = Plasma concentration of quinagolide and active metabolites in sheep with intravaginal rings; format: in vivo; settings: first and second sheep trials
From the text: During the first and second sheep trials, the plasma concentration of quinagolide (Q) was monitored over the 28 day period. The plasma concentrations of active metabolites (M1 and M2: see FIG. 13) were also monitored in the sheep. The results are illustrated in FIG. 10 (see Tables 14 and 17 for quinagolide dose).

[2] = In vivo release profile of vaginal rings in clinical study 000155; design: species or system healthy women
[3] = PK variables for quinagolide administered by an intravaginal ring in clinical study 000155; format: in vivo, healthy women; settings: for Tmax: median
Experimental: Following intravaginal administration the plasma concentration of quinagolide increased to reach a maximum at approximately 37-39 hours with a subsequent slow decline until the ring was removed (see FIG. 15). The mean time for reaching a maximum serum concentration was similar between all three dose groups but with substantial inter-individual variation. Cmax increased with increasing dose while the mean terminal half-life estimations were appropriately the same in all three doses (Table 21: above).

[4] = vaginal ring dose load 400 μg, target release 5 μg/day
[5] = vaginal ring dose load 800 μg, target release 10 μg/day
[6] = vaginal ring dose load 1200 μg, target release 15 μg/day

CCCN1CC(NS(=O)(=O)NCC)CC2Cc3c(O)cccc3CC21 (centres unmarked) [Batch M1]
molar plasma concentration, fold lower than the quinagolide [1]: approximately 10 fold

CCCN1CC(NS(N)(=O)=O)CC2Cc3c(O)cccc3CC21 (centres unmarked) [Batch M2]
molar plasma concentration, fold lower than the quinagolide [1]: approximately 10 fold

CCCN1C[C@@H](NS(=O)(=O)N(CC)CC)C[C@@H]2Cc3c(O)cccc3C[C@H]21 [quinagolide, N,N-diethyl-N′-[(3S,4aS, 10aR)-6-hydroxy-1-propyl-1,2,3,4,4a,5,10,10a-octahydrobenzo[g]quinolin-3-yl]sulfamide]
Average release 35 Days [2, 4]: 9.4 µg/day
Average release 7 days [2, 4]: 10.4 µg/day
Average release 28 days [2, 4]: 8.8 µg/day
Average release 35 Days [2, 5]: 16.8 µg/day
Average release 7 days [2, 5]: 24.1 µg/day
Average release 28 days [2, 5]: 12.6 µg/day
Average release 35 Days [2, 6]: 21.3 µg/day
Average release 7 days [2, 6]: 43.4 µg/day
Average release 28 days [2, 6]: 29.7 µg/day
AUC Day 0-28 (Hpg/mL) ([3]; 400 μg intravaginal ring, Mean (SD)): 738 (236) Hpg/mL
AUC Day 0-28 (Hpg/mL) ([3]; 800 μg intravaginal ring, Mean (SD)): 1497 (379) Hpg/mL
AUC Day 0-28 (Hpg/mL) ([3]; 1200 μg intravaginal ring, Mean (SD)): 3297 (1040) Hpg/mL
Cmax ([3]; female, human, plasma, 400 ug, 400 μg intravaginal ring, Mean (SD)): 3.4 pg/mL
Tmax ([3]; female, human, plasma, 400 ug, 400 μg intravaginal ring): 48 h
Cmax ([3]; female, human, plasma, 800 ug, 800 μg intravaginal ring, Mean (SD)): 5.3 pg/mL
Tmax ([3]; female, human, plasma, 800 ug, 800 μg intravaginal ring): 48 h
Cmax ([3]; female, human, plasma, 1200 ug, 1200 μg intravaginal ring, Mean (SD)): 10.9 pg/mL
Tmax ([3]; female, human, plasma, 1200 ug, 1200 μg intravaginal ring): 36 h
half-life ([3]; female, human, plasma, other: intravaginal ring, 400 ug, printed in the 400 μg line only, Mean (SD), read-out: T½ (converted)): 840 min
time at which plasma concentration of quinagolide reached a maximum ([3]; intravaginal administration, all three dose groups): 37 to 39 h
quinagolide concentration in the plasma at any point during the study [1]: ≤ 50 pg/mL
